In brackets after ≈: the same amount, converted by molar mass.
Legend:
[1] = target: T1, Human immunodeficiency virus type 1 reverse transcriptase (Human immunodeficiency virus 1, UniProt Q72547); assay: Inhibition of HIV-1 reverse transcriptase
[2] = test system: Human immunodeficiency virus 1; assay: Antiviral activity against HIV-1 harboring Y188L mutant infected in human MT4 cells assessed as protection against virus-induced cytopathic effect incubated for 5 days by MTT assay; type: functional, organism-based; conditions: Human immunodeficiency virus 1, MT4, 120 h
[3] = test system: Human immunodeficiency virus 1; assay: Antiviral activity against HIV-1 harboring F227L/V106A double mutant infected in human MT4 cells assessed as protection against virus-induced cytopathic effect incubated for 5 days by MTT assay; type: functional, organism-based; conditions: Human immunodeficiency virus 1, MT4, 120 h
[4] = test system: Human immunodeficiency virus 1; assay: Antiviral activity against HIV-1 harboring RES056 mutant infected in human MT4 cells assessed as protection against virus-induced cytopathic effect incubated for 5 days by MTT assay; type: functional, organism-based; conditions: Human immunodeficiency virus 1, MT4, 120 h
[5] = Cytotoxicity against human MT4 cells assessed as reduction in cell viability incubated for 5 days by MTT assay; type: toxicity, cell-based; conditions: MT4 cells, time 5 day
[6] = Selectivity index, ratio of CC50 for cytotoxicity against human MT4 cells assessed as reduction in cell viability to EC50 for antiviral activity against wild type HIV-1 IIIB infected in human MT4 cells assessed as protection against virus-induced cytopathic effect; type: toxicity, cell-based; conditions: MT4 cells, read-out: Ratio CC50/EC50
[7] = test system: Human immunodeficiency virus 1; assay: Antiviral activity against HIV-1 harboring L100I mutant infected in human MT4 cells assessed as protection against virus-induced cytopathic effect incubated for 5 days by MTT assay; type: functional, organism-based; conditions: Human immunodeficiency virus 1, MT4, 120 h
[8] = test system: Human immunodeficiency virus 1; assay: Antiviral activity against HIV-1 harboring K103N mutant infected in human MT4 cells assessed as protection against virus-induced cytopathic effect incubated for 5 days by MTT assay; type: functional, organism-based; conditions: Human immunodeficiency virus 1, MT4, 120 h
[9] = test system: Human immunodeficiency virus 1; assay: Antiviral activity against HIV-1 harboring Y181C mutant infected in human MT4 cells assessed as protection against virus-induced cytopathic effect incubated for 5 days by MTT assay; type: functional, organism-based; conditions: Human immunodeficiency virus 1, MT4, 120 h
[10] = test system: Human immunodeficiency virus 1; assay: Antiviral activity against HIV-1 harboring E138K mutant infected in human MT4 cells assessed as protection against virus-induced cytopathic effect incubated for 5 days by MTT assay; type: functional, organism-based; conditions: Human immunodeficiency virus 1, MT4, 120 h
[11] = target: T1, Human immunodeficiency virus type 1 reverse transcriptase; assay: Inhibition of wildtype recombinant HIV-1 Reverse transcriptase incubated for 40 mins by spectrofluorometric analysis
[12] = target: T2, Cytochrome P450 1A2 (Homo sapiens, UniProt P05177); assay: Inhibition of CYP1A2 in human liver microsome preincubated with compound for 10 minutes followed NADPH addition and measured after 15 mins by LC-MS/MS analysis; type: ADME, microsomes
T2 sequence (P05177 whole entry): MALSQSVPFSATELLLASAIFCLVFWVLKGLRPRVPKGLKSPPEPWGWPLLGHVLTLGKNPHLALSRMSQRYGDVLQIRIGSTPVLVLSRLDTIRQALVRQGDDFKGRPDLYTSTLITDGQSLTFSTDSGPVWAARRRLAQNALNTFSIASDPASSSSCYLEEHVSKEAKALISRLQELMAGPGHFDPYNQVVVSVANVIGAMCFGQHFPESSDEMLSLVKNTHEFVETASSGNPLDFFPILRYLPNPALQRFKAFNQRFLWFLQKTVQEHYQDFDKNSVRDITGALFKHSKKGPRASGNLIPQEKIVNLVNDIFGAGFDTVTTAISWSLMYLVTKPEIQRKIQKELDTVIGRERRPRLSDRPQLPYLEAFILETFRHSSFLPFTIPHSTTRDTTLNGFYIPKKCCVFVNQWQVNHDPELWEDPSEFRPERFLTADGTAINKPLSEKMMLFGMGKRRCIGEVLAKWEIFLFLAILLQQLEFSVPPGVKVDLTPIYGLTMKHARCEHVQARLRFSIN

[13] = target: Cytochrome P450 2C19 (Homo sapiens, UniProt P33261); assay: Inhibition of CYP2C19 in human liver microsome preincubated with compound for 10 minutes followed NADPH addition and measured after 15 mins by LC-MS/MS analysis; type: ADME, microsomes
Cytochrome P450 2C19, sequence (P33261 whole entry): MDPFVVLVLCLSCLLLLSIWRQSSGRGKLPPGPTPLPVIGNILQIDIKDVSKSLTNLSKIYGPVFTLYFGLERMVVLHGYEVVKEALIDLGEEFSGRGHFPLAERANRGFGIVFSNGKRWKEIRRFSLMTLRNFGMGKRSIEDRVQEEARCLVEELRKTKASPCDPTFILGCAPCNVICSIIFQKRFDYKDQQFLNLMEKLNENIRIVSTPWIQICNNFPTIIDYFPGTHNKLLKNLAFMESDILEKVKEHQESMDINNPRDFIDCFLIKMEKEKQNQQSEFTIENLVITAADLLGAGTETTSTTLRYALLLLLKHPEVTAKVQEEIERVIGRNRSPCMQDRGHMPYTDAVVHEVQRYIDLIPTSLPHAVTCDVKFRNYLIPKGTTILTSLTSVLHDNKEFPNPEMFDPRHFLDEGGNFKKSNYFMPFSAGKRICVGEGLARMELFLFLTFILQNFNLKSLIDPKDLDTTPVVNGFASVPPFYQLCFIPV

[14] = target: Cytochrome P450 2C9 (Homo sapiens, UniProt P11712); assay: Inhibition of CYP2C9 in human liver microsome preincubated with compound for 10 minutes followed NADPH addition and measured after 15 mins by LC-MS/MS analysis; type: ADME, microsomes
Cytochrome P450 2C9, sequence (P11712 whole entry): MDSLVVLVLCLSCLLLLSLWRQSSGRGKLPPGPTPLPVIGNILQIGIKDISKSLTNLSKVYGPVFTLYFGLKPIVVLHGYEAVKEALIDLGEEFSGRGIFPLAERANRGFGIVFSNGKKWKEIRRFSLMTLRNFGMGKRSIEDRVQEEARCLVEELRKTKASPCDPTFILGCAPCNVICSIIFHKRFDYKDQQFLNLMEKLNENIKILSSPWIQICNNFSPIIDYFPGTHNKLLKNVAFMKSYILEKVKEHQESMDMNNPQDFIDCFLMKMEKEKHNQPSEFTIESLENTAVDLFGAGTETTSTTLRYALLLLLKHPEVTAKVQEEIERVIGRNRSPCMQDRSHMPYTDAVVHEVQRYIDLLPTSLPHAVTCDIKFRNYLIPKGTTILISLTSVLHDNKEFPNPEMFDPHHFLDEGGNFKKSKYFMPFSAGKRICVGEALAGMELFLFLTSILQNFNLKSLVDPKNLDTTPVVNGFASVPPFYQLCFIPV

[15] = target: Cytochrome P450 2D6 (Homo sapiens, UniProt P10635); assay: Inhibition of CYP2D6 in human liver microsome preincubated with compound for 10 minutes followed NADPH addition and measured after 15 mins by LC-MS/MS analysis; type: ADME, microsomes
Cytochrome P450 2D6, sequence (P10635 whole entry): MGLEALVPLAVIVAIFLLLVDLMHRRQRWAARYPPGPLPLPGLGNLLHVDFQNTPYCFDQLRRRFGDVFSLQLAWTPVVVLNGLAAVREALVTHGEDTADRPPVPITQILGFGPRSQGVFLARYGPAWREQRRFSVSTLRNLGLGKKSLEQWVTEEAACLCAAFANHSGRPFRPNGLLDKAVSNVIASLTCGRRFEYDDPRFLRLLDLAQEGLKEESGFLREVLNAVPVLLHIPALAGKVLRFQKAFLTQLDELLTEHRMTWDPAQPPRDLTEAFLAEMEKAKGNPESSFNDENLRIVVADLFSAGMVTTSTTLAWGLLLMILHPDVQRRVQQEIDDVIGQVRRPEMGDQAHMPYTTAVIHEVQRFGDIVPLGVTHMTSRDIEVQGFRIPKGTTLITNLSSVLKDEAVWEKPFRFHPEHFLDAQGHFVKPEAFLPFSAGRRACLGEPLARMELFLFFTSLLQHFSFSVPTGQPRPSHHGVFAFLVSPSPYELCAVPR

[16] = target: T3, Cytochrome P450 3A4 (Homo sapiens, UniProt P08684); assay: Inhibition of CYP3A4 in human liver microsome using midazolam as substrate preincubated with compound for 10 minutes followed NADPH addition and measured after 15 mins by LC-MS/MS analysis; type: ADME, microsomes
T3 sequence (P08684 whole entry): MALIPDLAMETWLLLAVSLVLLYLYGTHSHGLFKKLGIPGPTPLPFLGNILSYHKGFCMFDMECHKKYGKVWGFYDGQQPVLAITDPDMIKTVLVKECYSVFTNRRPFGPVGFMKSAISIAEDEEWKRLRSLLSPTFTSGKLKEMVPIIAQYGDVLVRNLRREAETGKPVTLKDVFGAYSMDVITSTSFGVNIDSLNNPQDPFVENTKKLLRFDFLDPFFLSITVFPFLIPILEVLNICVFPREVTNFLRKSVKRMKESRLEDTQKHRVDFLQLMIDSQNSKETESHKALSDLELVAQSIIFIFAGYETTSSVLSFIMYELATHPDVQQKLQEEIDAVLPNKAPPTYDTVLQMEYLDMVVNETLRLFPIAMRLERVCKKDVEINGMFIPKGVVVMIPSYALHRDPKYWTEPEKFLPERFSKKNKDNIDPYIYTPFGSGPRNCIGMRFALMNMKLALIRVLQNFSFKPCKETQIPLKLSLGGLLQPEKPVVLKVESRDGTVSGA

[17] = target: T3, Cytochrome P450 3A4; assay: Inhibition of CYP3A4 in human liver microsome using testosterone as substrate preincubated with compound for 10 minutes followed NADPH addition and measured after 15 mins by LC-MS/MS analysis; type: ADME, microsomes
[18] = target: Voltage-gated inwardly rectifying potassium channel KCNH2 (Homo sapiens, UniProt Q12809); assay: Inhibition of hERG potassium channel stably expressed in CHO cells at -80 mV holding potential by whole-cell patch-clamp analysis; type: toxicity, cell-based
Voltage-gated inwardly rectifying potassium channel KCNH2, sequence (Q12809 whole entry): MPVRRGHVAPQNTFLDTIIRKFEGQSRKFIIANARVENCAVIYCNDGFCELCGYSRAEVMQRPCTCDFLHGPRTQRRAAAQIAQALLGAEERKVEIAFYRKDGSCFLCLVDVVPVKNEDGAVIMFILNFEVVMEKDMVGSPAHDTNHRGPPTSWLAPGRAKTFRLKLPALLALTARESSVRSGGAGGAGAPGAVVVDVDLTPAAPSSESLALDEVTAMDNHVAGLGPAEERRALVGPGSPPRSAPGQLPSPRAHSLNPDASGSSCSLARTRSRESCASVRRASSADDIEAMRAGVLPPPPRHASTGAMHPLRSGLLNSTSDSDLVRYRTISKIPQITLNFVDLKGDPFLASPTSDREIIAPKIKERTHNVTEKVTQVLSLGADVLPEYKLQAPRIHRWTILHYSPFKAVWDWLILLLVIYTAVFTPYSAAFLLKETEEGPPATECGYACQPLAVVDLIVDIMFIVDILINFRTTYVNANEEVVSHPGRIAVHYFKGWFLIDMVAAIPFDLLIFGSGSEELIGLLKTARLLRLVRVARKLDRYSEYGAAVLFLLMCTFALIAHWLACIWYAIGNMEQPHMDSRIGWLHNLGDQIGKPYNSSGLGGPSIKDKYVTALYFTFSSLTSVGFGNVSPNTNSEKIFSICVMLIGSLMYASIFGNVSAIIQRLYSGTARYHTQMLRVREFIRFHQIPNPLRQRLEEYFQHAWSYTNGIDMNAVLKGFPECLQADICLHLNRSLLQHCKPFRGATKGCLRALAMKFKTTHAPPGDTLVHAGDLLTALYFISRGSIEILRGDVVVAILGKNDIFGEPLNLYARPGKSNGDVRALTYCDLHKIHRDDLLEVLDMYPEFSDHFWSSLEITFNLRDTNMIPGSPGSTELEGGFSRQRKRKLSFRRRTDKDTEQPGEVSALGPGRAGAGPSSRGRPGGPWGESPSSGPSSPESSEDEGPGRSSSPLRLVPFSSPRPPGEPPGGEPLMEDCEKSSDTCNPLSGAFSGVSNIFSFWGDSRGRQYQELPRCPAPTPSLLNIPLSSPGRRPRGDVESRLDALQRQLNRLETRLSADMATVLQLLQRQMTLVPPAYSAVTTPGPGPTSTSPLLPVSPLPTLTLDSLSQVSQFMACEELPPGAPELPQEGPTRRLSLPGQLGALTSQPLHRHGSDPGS

[19] = Solubility of compound in phosphate buffer at pH 2 incubated for 24 hrs by HPLC analysis; type: physicochemical
[20] = Solubility of compound in phosphate buffer at pH 7 incubated for 24 hrs by HPLC analysis; type: physicochemical
[21] = Solubility of compound in phosphate buffer at pH 7.4 incubated for 24 hrs by HPLC analysis; type: physicochemical
[22] = Solubility of compound incubated for 24 hrs by HPLC analysis; type: physicochemical
[23] = Acute toxicity in SPF ICR mouse at 2 mg/kg, IG measured for 2 weeks; type: organism-based; conditions: in vivo, po, 336 h
[24] = Acute toxicity in SPF ICR mouse assessed as mortality at 2 mg/kg, IG measured for 2 weeks; type: organism-based; conditions: in vivo, po, 336 h
[25] = Acute toxicity in SPF ICR mouse assessed as change in body weight at 2 mg/kg, IG measured for 2 weeks; type: organism-based; conditions: in vivo, po, 336 h
[26] = Acute toxicity in SPF ICR mouse assessed as abnormal behavior at 2 mg/kg, IG measured for 2 weeks; type: organism-based; conditions: in vivo, po, 336 h
[27] = Acute toxicity in SPF ICR mouse assessed as distress at 2 mg/kg, IG measured for 2 weeks; type: organism-based; conditions: in vivo, po, 336 h
[28] = Acute toxicity in SPF ICR mouse assessed as pathological change in heart at 2 mg/kg, IG measured on day 14; type: organism-based; conditions: in vivo, po, 336 h, time 14 day
[29] = Acute toxicity in SPF ICR mouse assessed as pathological change in liver at 2 mg/kg, IG measured on day 14; type: organism-based; conditions: in vivo, po, 336 h, time 14 day
[30] = Acute toxicity in SPF ICR mouse assessed as pathological change in spleen at 2 mg/kg, IG measured on day 14; type: organism-based; conditions: in vivo, po, 336 h, time 14 day
[31] = Acute toxicity in SPF ICR mouse assessed as pathological change in lung at 2 mg/kg, IG measured on day 14; type: organism-based; conditions: in vivo, po, 336 h, time 14 day
[32] = Acute toxicity in SPF ICR mouse assessed as pathological change in kidney at 2 mg/kg, IG measured on day 14; type: organism-based; conditions: in vivo, po, 336 h, time 14 day
[33] = Acute toxicity in SPF ICR mouse assessed as pathological change in brain at 2 mg/kg, IG measured on day 14; type: organism-based; conditions: in vivo, po, 336 h, time 14 day
[34] = Acute toxicity in SPF ICR mouse assessed as heart damage at 2 mg/kg, IG measured on day 14; type: organism-based; conditions: in vivo, po, 336 h, time 14 day
[35] = Acute toxicity in SPF ICR mouse assessed as liver damage at 2 mg/kg, IG measured on day 14; type: organism-based; conditions: in vivo, po, 336 h, time 14 day
[36] = Acute toxicity in SPF ICR mouse assessed as spleen damage at 2 mg/kg, IG measured on day 14; type: organism-based; conditions: in vivo, po, 336 h, time 14 day
[37] = Acute toxicity in SPF ICR mouse assessed as lung damage at 2 mg/kg, IG measured on day 14; type: organism-based; conditions: in vivo, po, 336 h, time 14 day
[38] = Acute toxicity in SPF ICR mouse assessed as kidney damage at 2 mg/kg, IG measured on day 14; type: organism-based; conditions: in vivo, po, 336 h, time 14 day
[39] = Acute toxicity in SPF ICR mouse assessed as brain damage at 2 mg/kg, IG measured on day 14; type: organism-based; conditions: in vivo, po, 336 h, time 14 day

Cc1cc(-c2ccc(C#N)cc2)cc(C)c1Oc1nc(NC2CCN(Cc3ccc(S(N)(=O)=O)cc3)CC2)ncc1CO
EC50 [1]: 3 nM | EC50 [2]: 23 nM | EC50 [3]: 15 nM | EC50 [4]: 45 nM | CC50 at 120 h [5]: 18.2 µM | selectivity ratio [6]: 6540 | EC50 [7]: 9 nM | EC50 [8]: 9 nM | EC50 [9]: 10 nM | EC50 [10]: 8 nM | IC50 [11]: 293 nM | IC50 [12]: 50 µM | IC50 [13]: 25.7 µM | IC50 [14]: 17.6 µM | IC50 [15]: 50 µM | IC50 [16]: 50 µM | IC50 [17]: 50 µM | IC50 [18]: 20 µM | solubility at 24 h [19]: 3520 µg/mL (≈ 5890 µM) | solubility at 24 h [20]: < 1 µg/mL | solubility at 24 h [21]: < 1 µg/mL | solubility at 24 h [22]: < 1 µg/mL | Activity [23]: Non-toxic | Activity [24]: Non-toxic | Activity [25]: Non-toxic | Activity [26]: Non-toxic | Activity [27]: Non-toxic | Activity [28]: Non-toxic | Activity [29]: Non-toxic | Activity [30]: Non-toxic | Activity [31]: Non-toxic | Activity [32]: Non-toxic | Activity [33]: Non-toxic | Activity [34]: Non-toxic | Activity [35]: Non-toxic | Activity [36]: Non-toxic | Activity [37]: Non-toxic | Activity [38]: Non-toxic | Activity [39]: Non-toxic

Reference: ChEMBL document CHEMBL6078645, “Expanding the Solvent/Protein Region Occupation of the Non-Nucleoside Reverse Transcriptase Inhibitor Binding Pocket for Improved Broad-Spectrum Anti-HIV-1 Efficacy: from Rigid Phenyl-Diarylpyrimidines to Flexible Hydrophilic Piperidine-Diarylpyrimidines” (J Med Chem, 2024)
